US11759480B2, “Compositions and methods for CAR T cell therapy” (ENDOCYTE, INC., priority 2017, dated 2023)

Assays:
MDA-MB-231 tumors = assay: Host mouse cytokines after NaFL rescue (Example 48); format: in vivo, NSG mice
Method: In the first part of the study (FIG. 75), mice were treated with EC17 and FITC-CAR-T cells. When mice started to show sCRS, one dose of 60 umol/kg NaFL was injected for rescue. Mouse blood samples were then collected at both 7 hours and 27 hours post NaFL rescue. Mouse cytokine levels in blood were analyzed using a mouse inflammation panel kit (Cat. No. 740446) from BioLegend by following the manufacturer's instructions. FIGS. 76 A-E show cytokine levels 7 hours post rescue. FIGS. 77A-C show cytokine levels 27 hours post rescue.
In the second part of the study, a series of concentrations of NaFL were tested for their rescue efficiency (FIG. 78). As shown in FIGS. 79-81, mice cytokine levels in blood were also dependent on the concentrations of sodium fluorescein used for rescue, and the median effective dose is about 0.6 μmol/kg with cytokines tested (e.g. MCP-1, IL-6, and IL-10) and the mice started to respond as early as 3 hours post rescue.

MDA-MB-231 tumor = assay: Enumeration and characterization of FITC CAR T cells in blood after rescue (Example 33); format: in vivo, NSG mice
Method: Plasma was removed from predetermined volumes of whole EDTA treated blood with a 10-minute 4° C. spin at 3000 g and the resulting cell pellets were incubated with a 10-fold volume of room temperature 1×RBC lysis solution [prepared from 10× stock; Biolegend, catalog #420301] for 5 minutes, centrifuged at 400 g for 5 min, and the cell pellet was washed in a 10-fold volume of ice cold phosphate buffered saline pH=7.4 and filtered with a 40 μm nylon filter and then pelleted again. The leukocyte pellets were then resuspended in flow cytometry staining solution [1% bovine serum albumin, 50 mg/mL human IgG (Equitech Bio, cat #SLH56-0001), 0.9% sodium azide in a phosphate buffered saline, pH=7.4] supplemented with both anti-mouse FcγIII/II receptor (CD16/CD32) block [clone 2.4G2; BD Bioscience, catalog #553142 at 1:100 (v/v) dilution] and anti-human Fc Block [BD Biosciences, catalog #564220 at 1:50 (v/v) dilution]. Leukocyte surface marker staining was performed with the addition of the following fluorochrome conjugated monoclonal antibodies added to each sample for 20 minutes on ice in the dark: anti-human CD45-APCeF780 [clone HI30, eBioscience #47-0459-42 at 1:20 (v/v) dilution], anti-human CD137-BV650 [clone 4B4-1, BD Bioscience #564092 at 1:20 (v/v) dilution], anti-human CD8α-PECy7 [clone RPA-T8, BD Bioscience, catalog #557746 at 1:20 (v/v) dilution], anti-human CD4-Percpe710 [clone SK3, eBioscience catalog #46-0047-42 at 1:20 (v/v) dilution]. After leukocyte staining, cells were washed with PBS and resuspended in cold PBS containing 53,000 CountBright™ beads [Invitrogen catalog #C36950] and transferred to flow cytometry collection tubes. Flow cytometry data was collected on the Gallios flow cytometer (Beckman Coulter, Brea, Calif.), where a minimum of 15,000 CountBright™ bead events were collected in an attempt to collect enough leukocyte events for an accurate count of infused CART cells in each mouse blood sample. Determination of the concentration of CAR T cells in each blood sample was calculated according to Invitrogen's instructions. Briefly, CAR T cells were identified as human CD45+ GFP+ events and were easily distinguished and counted using the Kaluza™ flow cytometry software. CountBright™ beads were uniformly labeled with a fluorochrome not utilized in the antibody panel used to identify the CAR T cells and were easily distinguished from the leukocytes and bead events were counted. Because 53,000 CountBright™ beads were added to each sample tube, we calculated the ratio of 53,000 total beads to bead events collected per sample and set the bead ratio equivalent to the unknown number of CAR T cells in each sample divided by the known number of CAR T cell events collected. Solving for the unknown gave us the number of CAR T cells isolated from each blood sample of known volumes. The number of CAR T cells in the circulation of each infused mouse was then represented on the graphs as the total number of CART cells per 50 μL of whole blood analyzed. Statistical significance was determined by utilizing an unpaired, two-tailed, students t-test with significance set at p<0.05 for comparisons between each of the three groups of mice.
The experimental timeline is represented in FIG. 53A. On day 0, GFP+FITC-CAR T cells [clone 4M5.3] were removed from cryopreservation, thawed and then infused intravenously into MDA-MB-231 tumor bearing NSG mice at 10 million per mouse [tumors ˜250 mm^3]. […]

s.c. MDA-MB-231 tumors = assay: EC17 dose escalation cycles versus weekly dosing (Example 45); format: in vivo, mice
Method: The effect of EC17 dose de-escalation was investigated on the anti-tumor activity and the toxicity (body weight changes) of CAR-T therapy. 8.5 million frozen anti-FITC CAR-T cells were thawed and i.v. injected into mice bearing s.c. MDA-MB-231 tumors (100-200 mm3). 500 nmol/kg EC17 was administered 2 days after CAR-T injection and caused sCRS in mice. […] The first group was dosed with 500 nmol/kg EC17 weekly (SIW), whereas the second group was dosed with two EC17 escalation cycles. Each cycle lasted for 2 weeks (14 days). The dosing schedule in each cycle included 5 nmol/kg EC17 at day 1, 50 nmol/kg EC17 at day 3, 500 nmol/kg EC17 on day 5. After 9 days break, the second escalation cycle started. Tumor sizes and body weights were monitored 2-3 times per week.

Compound	mouse cytokine levels in blood (MCP-1, IL-6, IL-10, IFN-β, TNF-α) (MDA-MB-231 tumors; EC17 dosed versus CAR-T without EC17)	CAR T cells in circulation (MDA-MB-231 tumor; one dose EC17 500 nmol/kg)	body weight loss of escalation group (s.c. MDA-MB-231 tumors; cycles of 5, 50, 500 nmol/kg at day 1, 3, 5)	mouse cytokine levels in blood (MDA-MB-231 tumors; 60 μmol/kg, 7 hours and 27 hours post rescue)	earliest response post rescue (MDA-MB-231 tumors; mouse, in vivo) [h]	median effective dose (mouse MCP-1, IL-6, IL-10) (MDA-MB-231 tumors; mouse, in vivo)	CAR T cells in circulation (MDA-MB-231 tumor; 60 μmol/kg, 27 hours after rescue)	earliest increase of circulating CAR T cells (MDA-MB-231 tumor; 0.06-6 μmol/kg) [h]	CAR T cell extravasation into the blood (MDA-MB-231 tumor; 24 hours post rescue, 0.06-6 μmol/kg)	4-1BB (CD137) on circulating CAR T cells (MDA-MB-231 tumor; CAR T + EC17 + sodium fluorescein 60 μmol/kg)	rescue from sCRS (s.c. MDA-MB-231 tumors; 6 umol/kg)
Nc1nc2ncc(CNc3ccc(C(=O)NC(CCC(=O)NCCNC(=S)Nc4ccc(-c5c6ccc(=O)cc-6oc6cc(O)ccc56)c(C(=O)O)c4)C(=O)O)cc3)nc2c(=O)[nH]1 (centres unmarked) [EC17, FITC-Folate]	increased mouse cytokine levels	very few CAR T cells are detected in the circulation	much less than that of the EC17 SIW group								
O=C([O-])c1ccccc1-c1c2ccc(=O)cc-2oc2cc([O-])ccc12.[Na+].[Na+] [sodium fluorescein]				much lower than those in un-rescued mice	3	about 0.6 μmol/kg	CAR T cells reappear in the circulation	3	increased in a sodium fluorescein dose-dependent manner	express significant amounts of 4-1BB	successfully rescued
